Literature values in patent US20070237815A1 (priority 2006, published 2007).

Conditions: in the elderly

Q: Which half-life does the source give for `NS(=O)(=O)c1cc(C2(O)NC(=O)c3ccccc32)ccc1Cl` (stereo not shown) [chlorthalidone] here?
A: approximately 72 hours
